The values below come from US20260295053A1, “COMPOUNDS FOR DEGRADATION AND INHIBITION OF KRAS (G12D) PROTEIN” (Shenzhen Ionova Life Science Co., Ltd., priority 2023, published 2026).

Each structure is given as a SMILES string.

Experiment [1] has as its target T1, KRAS (G12D) (Homo sapiens, UniProt P01116, G12D).
T1 construct: in-cell western with KRAS G12D antibody after 24 h
In words: KRAS (G12D) cellular degradation assay in AsPC-1 cells. The format is cell-based. The settings on record: 24 hours, antibody fluorescence (Odyssey CLX), DC50 half-maximal degradation concentration. Summed up: (§1)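 AsPC-1 cells were seeded at 22,000/well for degradation and 3,500/well for proliferation. Compounds in 1:3 dilutions ([…] to 1.5 nM final) ran 24 h for degradation, read by in-cell immunofluorescence of KRAS G12D normalised to β-actin, and 6 days for proliferation (CellTiter Glo luminescence). DC50/IC50 came from dose-response fits.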

The test system of experiment [2] is AsPC-1 cells. In words: AsPC-1 cell proliferation assay (CellTiter Glo). The conditions noted are these: 6 days. The format is cell-based. Summed up: as §1
In general terms: ATP-based viability assays read luminescence as a measure of living cells.

T1 sequence (P01116 1-188 isoform P01116-2 G12D): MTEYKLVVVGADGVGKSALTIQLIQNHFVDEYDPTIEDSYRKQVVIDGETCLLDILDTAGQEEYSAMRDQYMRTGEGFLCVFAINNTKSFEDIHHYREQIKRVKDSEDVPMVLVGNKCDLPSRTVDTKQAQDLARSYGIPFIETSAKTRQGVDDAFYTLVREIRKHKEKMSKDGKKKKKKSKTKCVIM

As a reminder, the DC50 is the concentration at which degradation of the target reaches its halfway point. Read a high DC50 as degradation only at high concentration. By IC50 is commonly meant the concentration that inhibits the measured activity by half. The low end stands for higher potency, the high end for lower potency. Take `Cc1ncsc1-c1ccc([C@H](CO)NC(=O)[C@@H]2C[C@@H](O)CN2C(=O)[C@H](C(C)C)n2cc(-c3ccc(COc4c(-c5c(C)c(F)cc6[nH]ncc56)c(C5CC5)cc5c(N6CC7CCC(C6)N7)nc(OC6CCOCC6)nc45)cc3)nn2)cc1` [Example 49, (2S,4R)-1-((2S)-2-(4-(4-(((4-(3,8-diazabicyclo[3.2.1]octan-3-yl)-6-cyclopropyl-7-(6-fluoro-5-methyl-1H-indazol-4-yl)-2-((tetrahydro-2H-pyran-4-yl)oxy)quinazolin-8-yl)oxy)methyl)phenyl)-1H-1,2,3-triazol-1-yl)-3-methylbutanoyl)-4-hydroxy-N—((R)-2-hydroxy-1-(4-(4-methylthiazol-5-yl)phenyl)ethyl)pyrrolidine-2-carboxamide]: in experiment [1], the DC50 was less than 10 nM. This compound returned an IC50 in experiment [2] (Homo sapiens, ASPC1, 144 h) of less than 10 nM.
With `CCn1nccc1-c1ccc([C@@H](NC(=O)[C@@H]2C[C@@H](O)CN2C(=O)[C@H](C(C)C)n2cc(-c3ccc(COc4c(-c5c(C)c(F)cc6[nH]ncc56)c(C5CC5)cc5c(N6C[C@@H]7C[C@H]6CN7)nc(O[C@H]6C[C@H](OC)C6)nc45)cc3)nn2)[C@H](C)O)c2c1CC2` [Example 147, (2S,4R)-1-((2S)-2-(4-(4-(((4-((1S,4S)-2,5-diazabicyclo[2.2.1]heptan-2-yl)-6-cyclopropyl-7-(6-fluoro-5-methyl-1H-indazol-4-yl)-2-((1r,3S)-3-methoxycyclobutoxy)quinazolin-8-yl)oxy)methyl)phenyl)-1H-1,2,3-triazol-1-yl)-3-methylbutanoyl)-N-((1R,2S)-1-(5-(1-ethyl-1H-pyrazol-5-yl)bicyclo[4.2.0]octa-1(6),2,4-trien-2-yl)-2-hydroxypropyl)-4-hydroxypyrrolidine-2-carboxamide], in experiment [1], the DC50 was less than 10 nM. In experiment [2] (Homo sapiens, ASPC1, 144 h), this compound showed an IC50 of less than 10 nM.
The compound `CCn1nccc1-c1ccc([C@H](CO)NC(=O)[C@@H]2C[C@@H](O)CN2C(=O)[C@H](C(C)C)n2cc(-c3ccc(COc4c(-c5c(C)c(F)cc6[nH]ncc56)c(C5CC5)cc5c(N6CCC=CCC6)nc(OC[C@H](C)OC)nc45)cc3)nn2)cc1` [Example 181, (2S,4R)-1-((2S)-2-(4-(4-(((6-cyclopropyl-7-(6-fluoro-5-methyl-1H-indazol-4-yl)-2-((S)-2-methoxypropoxy)-4-(2,3,6,7-tetrahydro-1H-azepin-1-yl)quinazolin-8-yl)oxy)methyl)phenyl)-1H-1,2,3-triazol-1-yl)-3-methylbutanoyl)-N—((R)-1-(4-(1-ethyl-1H-pyrazol-5-yl)phenyl)-2-hydroxyethyl)-4-hydroxypyrrolidine-2-carboxamide] gave a DC50 in experiment [1] of 10 to 100 nM. The half-maximal inhibitory concentration (IC50) in experiment [2] lay in the range of 10 to 100 nM.
`CCn1nccc1-c1ccc([C@@H](NC(=O)[C@@H]2C[C@@H](O)CN2C(=O)[C@H](C(C)C)n2cc(-c3ccc(COc4c(-c5c(C)c(F)cc6[nH]ncc56)c(C5CC5)cc5c(N6C[C@@H]7C[C@H]6CN7)nc(O[C@H]6C[C@H](OC)C6)nc45)cc3)nn2)[C@H](C)O)cn1` [Example 193, (2S,4R)-1-((2S)-2-(4-(4-(((4-((1S,4S)-2,5-diazabicyclo[2.2.1]heptan-2-yl)-6-cyclopropyl-7-(6-fluoro-5-methyl-1H-indazol-4-yl)-2-((1r,3S)-3-methoxycyclobutoxy)quinazolin-8-yl)oxy)methyl)phenyl)-1H-1,2,3-triazol-1-yl)-3-methylbutanoyl)-N-((1R,2S)-1-(6-(1-ethyl-1H-pyrazol-5-yl)pyridin-3-yl)-2-hydroxypropyl)-4-hydroxypyrrolidine-2-carboxamide] gave a DC50 in experiment [1] of 10 to 100 nM. For the same compound, in experiment [2] (Homo sapiens, ASPC1, 144 h), the IC50 was less than 10 nM.
In the same order, the values of `CCn1nccc1-c1ccc([C@H](CO)NC(=O)[C@@H]2C[C@@H](O)CN2C(=O)[C@H](C(C)C)n2cc(-c3ccc(COc4c(-c5c(C)c(F)cc6[nH]ncc56)c(C5CC5)cc5c(N6C[C@@H]7C[C@H]6CN7)nc(O[C@H]6CO[C@H]7OCC[C@H]76)nc45)cc3)nn2)cc1` [Example 56, (2S,4R)-1-((2S)-2-(4-(4-(((4-((1S,4S)-2,5-diazabicyclo[2.2.1]heptan-2-yl)-6-cyclopropyl-7-(6-fluoro-5-methyl-1H-indazol-4-yl)-2-(((3R,3aS,6aR)-hexahydrofuro[2,3-b]furan-3-yl)oxy)quinazolin-8-yl)oxy)methyl)phenyl)-1H-1,2,3-triazol-1-yl)-3-methylbutanoyl)-N—((R)-1-(4-(1-ethyl-1H-pyrazol-5-yl)phenyl)-2-hydroxyethyl)-4-hydroxypyrrolidine-2-carboxamide] are less than 10 nM and less than 10 nM.
The like results for `CCn1nccc1-c1ccc([C@@H](NC(=O)[C@@H]2C[C@@H](O)CN2C(=O)[C@H](C(C)C)n2cc(-c3ccc(COc4c(-c5c(C)c(F)cc6[nH]ncc56)c(C5CC5)cc5c(N6CCCNCC6)nc(O[C@H]6C[C@H](OC)C6)nc45)cc3)nn2)[C@H](C)O)cc1` [Example 156, (2S,4R)-1-((2S)-2-(4-(4-(((6-cyclopropyl-4-(1,4-diazepan-1-yl)-7-(6-fluoro-5-methyl-1H-indazol-4-yl)-2-((1r,3r)-3-methoxycyclobutoxy)quinazolin-8-yl)oxy)methyl)phenyl)-1H-1,2,3-triazol-1-yl)-3-methylbutanoyl)-N-((1R,2S)-1-(4-(1-ethyl-1H-pyrazol-5-yl)phenyl)-2-hydroxypropyl)-4-hydroxypyrrolidine-2-carboxamide] were, in that order, less than 10 nM and less than 10 nM.
Regarding `CO[C@@H](C)COc1nc(N2C[C@H]3C[C@@H]2CN3)c2cc(C3CC3)c(-c3c(C)c(F)cc4[nH]ncc34)c(OCc3ccc(-c4cn([C@H](C(=O)N5C[C@H](O)C[C@H]5C(=O)N[C@@H](C)c5ccc(-c6scnc6C)cc5)C(C)C)nn4)cc3)c2n1` (single isomer, unassigned) [Example 3A], the DC50 in experiment [1] is less than 10 nM. This compound yielded an IC50 in experiment [2] of 10 to 100 nM.
`CCn1nccc1-c1ccc([C@H](CO)NC(=O)[C@@H]2C[C@@H](O)CN2C(=O)[C@H](C(C)C)n2cc(-c3ccc(COc4c(-c5c(C)c(F)cc6[nH]ncc56)c(C5CC5)cc5c(N6C[C@@H]7C[C@H]6CN7)nc(OCC6COC7OCCC67)nc45)cc3)nn2)cc1` (stereo partly drawn) [Example 51, (2S,4R)-1-((2S)-2-(4-(4-(((4-((1S,4S)-2,5-diazabicyclo[2.2.1]heptan-2-yl)-6-cyclopropyl-7-(6-fluoro-5-methyl-1H-indazol-4-yl)-2-((hexahydrofuro[2,3-b]furan-3-yl)methoxy)quinazolin-8-yl)oxy)methyl)phenyl)-1H-1,2,3-triazol-1-yl)-3-methylbutanoyl)-N—((R)-1-(4-(1-ethyl-1H-pyrazol-5-yl)phenyl)-2-hydroxyethyl)-4-hydroxypyrrolidine-2-carboxamide]: in experiment [1], the DC50 was less than 10 nM. This compound returned an IC50 in experiment [2] (Homo sapiens, ASPC1, 144 h) of less than 10 nM.
In turn, `CCn1nccc1-c1ccc([C@H](CO)NC(=O)[C@@H]2C[C@@H](O)CN2C(=O)[C@H](C(C)C)n2cc(-c3ccc(COc4c(-c5c(C)c(F)cc6[nH]ncc56)c(C5CC5)cc5c(N6C[C@@H]7C[C@H]6CN7)nc(OC(COC)C(F)(F)F)nc45)cc3)nn2)cc1` (stereo partly drawn) [Example 58, (2S,4R)-1-((2S)-2-(4-(4-(((4-((1S,4S)-2,5-diazabicyclo[2.2.1]heptan-2-yl)-6-cyclopropyl-7-(6-fluoro-5-methyl-1H-indazol-4-yl)-2-((1,1,1-trifluoro-3-methoxypropan-2-yl)oxy)quinazolin-8-yl)oxy)methyl)phenyl)-1H-1,2,3-triazol-1-yl)-3-methylbutanoyl)-N—((R)-1-(4-(1-ethyl-1H-pyrazol-5-yl)phenyl)-2-hydroxyethyl)-4-hydroxypyrrolidine-2-carboxamide] returned a DC50 in experiment [1] of less than 10 nM. The compound further returned an IC50 in experiment [2] (Homo sapiens, ASPC1, 144 h) of less than 10 nM.
On to `CCn1nccc1-c1ccc([C@H](CO)NC(=O)[C@@H]2C[C@@H](O)CN2C(=O)[C@H](C(C)C)n2cc(-c3ccc(COc4c(-c5c(C)c(F)cc6[nH]ncc56)c(C5CC5)cc5c(N6CCCOCC6)nc(OC[C@H](C)OC)nc45)cc3)nn2)cc1` [Example 180, (2S,4R)-1-((2S)-2-(4-(4-(((6-cyclopropyl-7-(6-fluoro-5-methyl-1H-indazol-4-yl)-2-((S)-2-methoxypropoxy)-4-(1,4-oxazepan-4-yl)quinazolin-8-yl)oxy)methyl)phenyl)-1H-1,2,3-triazol-1-yl)-3-methylbutanoyl)-N—((R)-1-(4-(1-ethyl-1H-pyrazol-5-yl)phenyl)-2-hydroxyethyl)-4-hydroxypyrrolidine-2-carboxamide], for which the DC50 in experiment [1] was less than 10 nM. Also, the IC50 in experiment [2] (Homo sapiens, ASPC1, 144 h) was less than 10 nM.
The compound `CCn1nccc1-c1ccc([C@@H](NC(=O)[C@@H]2C[C@@H](O)CN2C(=O)[C@H](C(C)C)n2cc(-c3ccc(COc4c(-c5c(C)c(F)cc6[nH]ncc56)c(C5CC5)cc5c(N6C[C@@H]7C[C@H]6CN7)nc(OC[C@H](C)OC)nc45)cc3)nn2)C(C)O)cc1` (stereo in doubt) [Example 75, (2S,4R)-1-((2S)-2-(4-(4-(((4-((1S,4S)-2,5-diazabicyclo[2.2.1]heptan-2-yl)-6-cyclopropyl-7-(6-fluoro-5-methyl-1H-indazol-4-yl)-2-((S)-2-methoxypropoxy)quinazolin-8-yl)oxy)methyl)phenyl)-1H-1,2,3-triazol-1-yl)-3-methylbutanoyl)-N-((1R,2R)-1-(4-(1-ethyl-1H-pyrazol-5-yl)phenyl)-2-hydroxypropyl)-4-hydroxypyrrolidine-2-carboxamide] displayed a 50% degradation concentration (DC50) in experiment [1] of less than 10 nM. Besides, the IC50 in experiment [2] (Homo sapiens, ASPC1, 144 h) was less than 10 nM.
